According to the NIST ThermoML archive (doi:10.1016/j.jct.2007.11.011):
± gives the expanded uncertainty stated by the source.

Assay: xn = mol fraction of the nth substance listed
Conditions: Liquid

CCOS(=O)(=O)[O-].CCn1cc[n+](C)c1 [1-ethyl-3-methylimidazolium ethyl sulfate] + CO
Conditions | mass density [kg/m3]
298.15 K, 20000 kPa, x1 = 0.485 | 1171.24 ± 1.4
298.15 K, 20000 kPa, x1 = 0.589 | 1193.61 ± 1.6
298.15 K, 20000 kPa, x1 = 0.7289 | 1216.37 ± 1.7
298.15 K, 20000 kPa, x1 = 0.8521 | 1230.93 ± 1.8
298.15 K, 20000 kPa, x1 = 0.9397 | 1240.12 ± 1.9
298.15 K, 25000 kPa, x1 = 0.04781 | 900.3 ± 1
298.15 K, 25000 kPa, x1 = 0.1026 | 972.43 ± 0.56
298.15 K, 25000 kPa, x1 = 0.1977 | 1054.44 ± 0.72
298.15 K, 25000 kPa, x1 = 0.2432 | 1082.59 ± 0.9
298.15 K, 25000 kPa, x1 = 0.3026 | 1112.96 ± 1.1
298.15 K, 25000 kPa, x1 = 0.3887 | 1145.98 ± 1.4
298.15 K, 25000 kPa, x1 = 0.485 | 1173.44 ± 1.6
298.15 K, 25000 kPa, x1 = 0.589 | 1195.76 ± 1.8
298.15 K, 25000 kPa, x1 = 0.7289 | 1218.42 ± 2
298.15 K, 25000 kPa, x1 = 0.8521 | 1232.93 ± 2.1
298.15 K, 25000 kPa, x1 = 0.9397 | 1242.11 ± 2.2
298.15 K, 30000 kPa, x1 = 0.04781 | 903.63 ± 1.1
298.15 K, 30000 kPa, x1 = 0.1026 | 975.41 ± 0.57
298.15 K, 30000 kPa, x1 = 0.1977 | 1057.05 ± 0.79
298.15 K, 30000 kPa, x1 = 0.2432 | 1085.11 ± 0.99
298.15 K, 30000 kPa, x1 = 0.3026 | 1115.37 ± 1.3
298.15 K, 30000 kPa, x1 = 0.3887 | 1148.26 ± 1.6
298.15 K, 30000 kPa, x1 = 0.485 | 1175.62 ± 1.8
298.15 K, 30000 kPa, x1 = 0.589 | 1197.87 ± 2
298.15 K, 30000 kPa, x1 = 0.7289 | 1220.46 ± 2.2
298.15 K, 30000 kPa, x1 = 0.8521 | 1234.93 ± 2.4
298.15 K, 30000 kPa, x1 = 0.9397 | 1244.08 ± 2.5
298.15 K, 35000 kPa, x1 = 0.04781 | 906.81 ± 1.2
298.15 K, 35000 kPa, x1 = 0.1026 | 978.3 ± 0.57
298.15 K, 35000 kPa, x1 = 0.1977 | 1059.58 ± 0.86
298.15 K, 35000 kPa, x1 = 0.2432 | 1087.54 ± 1.1
298.15 K, 35000 kPa, x1 = 0.3026 | 1117.69 ± 1.4
298.15 K, 35000 kPa, x1 = 0.3887 | 1150.46 ± 1.8
298.15 K, 35000 kPa, x1 = 0.485 | 1177.74 ± 2.1
298.15 K, 35000 kPa, x1 = 0.589 | 1199.91 ± 2.3
298.15 K, 35000 kPa, x1 = 0.7289 | 1222.43 ± 2.5
298.15 K, 35000 kPa, x1 = 0.8521 | 1236.86 ± 2.7
298.15 K, 35000 kPa, x1 = 0.9397 | 1245.99 ± 2.8
303.15 K, 100 kPa, x1 = 0.04781 | 877.37 ± 0.59
303.15 K, 100 kPa, x1 = 0.1026 | 951.86 ± 0.5
303.15 K, 100 kPa, x1 = 0.1977 | 1036.37 ± 0.5
303.15 K, 100 kPa, x1 = 0.2432 | 1065.2 ± 0.53
303.15 K, 100 kPa, x1 = 0.3026 | 1096.34 ± 0.57
303.15 K, 100 kPa, x1 = 0.3887 | 1130.14 ± 0.62
303.15 K, 100 kPa, x1 = 0.485 | 1158.24 ± 0.67
303.15 K, 100 kPa, x1 = 0.589 | 1181.07 ± 0.7
303.15 K, 100 kPa, x1 = 0.7289 | 1204.24 ± 0.74
303.15 K, 100 kPa, x1 = 0.8521 | 1219.11 ± 0.77
303.15 K, 100 kPa, x1 = 0.9397 | 1228.28 ± 0.79
303.15 K, 2500 kPa, x1 = 0.04781 | 879.39 ± 0.64
303.15 K, 2500 kPa, x1 = 0.1026 | 953.61 ± 0.51
303.15 K, 2500 kPa, x1 = 0.1977 | 1037.84 ± 0.51
303.15 K, 2500 kPa, x1 = 0.2432 | 1066.61 ± 0.55
303.15 K, 2500 kPa, x1 = 0.3026 | 1097.65 ± 0.61
303.15 K, 2500 kPa, x1 = 0.3887 | 1131.4 ± 0.67
303.15 K, 2500 kPa, x1 = 0.485 | 1159.4 ± 0.73
303.15 K, 2500 kPa, x1 = 0.589 | 1182.15 ± 0.78
303.15 K, 2500 kPa, x1 = 0.7289 | 1205.29 ± 0.83
303.15 K, 2500 kPa, x1 = 0.8521 | 1220.12 ± 0.87
303.15 K, 2500 kPa, x1 = 0.9397 | 1229.37 ± 0.89
303.15 K, 5000 kPa, x1 = 0.04781 | 881.43 ± 0.68
303.15 K, 5000 kPa, x1 = 0.1026 | 955.38 ± 0.52
303.15 K, 5000 kPa, x1 = 0.1977 | 1039.36 ± 0.53
303.15 K, 5000 kPa, x1 = 0.2432 | 1068.04 ± 0.58
303.15 K, 5000 kPa, x1 = 0.3026 | 1099 ± 0.65
303.15 K, 5000 kPa, x1 = 0.3887 | 1132.67 ± 0.73
303.15 K, 5000 kPa, x1 = 0.485 | 1160.61 ± 0.81
303.15 K, 5000 kPa, x1 = 0.589 | 1183.33 ± 0.87
303.15 K, 5000 kPa, x1 = 0.7289 | 1206.4 ± 0.93
303.15 K, 5000 kPa, x1 = 0.8521 | 1221.21 ± 0.98
303.15 K, 5000 kPa, x1 = 0.9397 | 1230.44 ± 1
303.15 K, 10000 kPa, x1 = 0.04781 | 885.44 ± 0.77
303.15 K, 10000 kPa, x1 = 0.1026 | 958.89 ± 0.54
303.15 K, 10000 kPa, x1 = 0.1977 | 1042.38 ± 0.56
303.15 K, 10000 kPa, x1 = 0.2432 | 1070.92 ± 0.64
303.15 K, 10000 kPa, x1 = 0.3026 | 1101.75 ± 0.74
303.15 K, 10000 kPa, x1 = 0.3887 | 1135.24 ± 0.86
303.15 K, 10000 kPa, x1 = 0.485 | 1163.06 ± 0.97
303.15 K, 10000 kPa, x1 = 0.589 | 1185.69 ± 1.1
303.15 K, 10000 kPa, x1 = 0.7289 | 1208.67 ± 1.2
303.15 K, 10000 kPa, x1 = 0.8521 | 1223.41 ± 1.2
303.15 K, 10000 kPa, x1 = 0.9397 | 1232.62 ± 1.3
303.15 K, 15000 kPa, x1 = 0.04781 | 890.01 ± 0.86
303.15 K, 15000 kPa, x1 = 0.1026 | 962.19 ± 0.56
303.15 K, 15000 kPa, x1 = 0.1977 | 1045.21 ± 0.6
303.15 K, 15000 kPa, x1 = 0.2432 | 1073.64 ± 0.71
303.15 K, 15000 kPa, x1 = 0.3026 | 1104.31 ± 0.84
